Activity calls are given as the source filed them.
Columns and labels:
[1] = tested on: Streptococcus sp. 'group A'; assay: growth inhibition of control SK(-) GAS strain, dose response, counter-screen for streptokinase expression inhibitor project, luminescence, kanamycin, BacTiterGlo, confirmation (AID 1900); format: functional, organism-based
[2] = tested on: Streptococcus; assay: Group A Streptococcus viability loss, dose response, counter-screen for streptokinase expression inhibitor project, luminescence, BacTiterGlo (AID 1915); format: functional, organism-based;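 further: potency for reduction of bacterial viability or growth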
[3] = cells; format: functional
[4] = molecular target: T1, fMet-Leu-Phe receptor (Homo sapiens, UniProt P21462); assay: FPR ligands, dose response (AID 519); format: functional
T1 sequence (P21462 whole entry): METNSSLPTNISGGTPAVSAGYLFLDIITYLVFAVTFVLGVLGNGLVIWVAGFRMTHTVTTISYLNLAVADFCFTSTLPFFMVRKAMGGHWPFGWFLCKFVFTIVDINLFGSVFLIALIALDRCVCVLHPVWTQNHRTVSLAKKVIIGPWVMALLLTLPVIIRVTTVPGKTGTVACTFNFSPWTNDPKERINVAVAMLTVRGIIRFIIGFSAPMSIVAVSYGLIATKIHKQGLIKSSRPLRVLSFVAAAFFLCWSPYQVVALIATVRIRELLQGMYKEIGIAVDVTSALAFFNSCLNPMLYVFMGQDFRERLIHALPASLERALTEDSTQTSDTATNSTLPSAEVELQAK

[5] = THP-1 cell cytotoxicity, dose response, cytotoxicity control for non-replicating M. tuberculosis project (AID 489025); format: functional
[6] = HepG2 cell cytotoxicity, dose response, cytotoxicity control for non-replicating M. tuberculosis project (AID 489018); format: functional; conditions: Mycobacterium tuberculosis
[7] = Vero E6 cell cytotoxicity, dose response, cytotoxicity control for non-replicating M. tuberculosis project, secondary assay (AID 492998); format: functional, VeroE6; conditions: Vero C1008
[8] = molecular target: T2, Voltage-gated N-type calcium channel alpha-1B subunit/Amyloid beta A4 precursor protein-binding family A member 1 (Homo sapiens, UniProt Q00975+Q02410); format: protein assay
T2 sequence (Q00975 whole entry): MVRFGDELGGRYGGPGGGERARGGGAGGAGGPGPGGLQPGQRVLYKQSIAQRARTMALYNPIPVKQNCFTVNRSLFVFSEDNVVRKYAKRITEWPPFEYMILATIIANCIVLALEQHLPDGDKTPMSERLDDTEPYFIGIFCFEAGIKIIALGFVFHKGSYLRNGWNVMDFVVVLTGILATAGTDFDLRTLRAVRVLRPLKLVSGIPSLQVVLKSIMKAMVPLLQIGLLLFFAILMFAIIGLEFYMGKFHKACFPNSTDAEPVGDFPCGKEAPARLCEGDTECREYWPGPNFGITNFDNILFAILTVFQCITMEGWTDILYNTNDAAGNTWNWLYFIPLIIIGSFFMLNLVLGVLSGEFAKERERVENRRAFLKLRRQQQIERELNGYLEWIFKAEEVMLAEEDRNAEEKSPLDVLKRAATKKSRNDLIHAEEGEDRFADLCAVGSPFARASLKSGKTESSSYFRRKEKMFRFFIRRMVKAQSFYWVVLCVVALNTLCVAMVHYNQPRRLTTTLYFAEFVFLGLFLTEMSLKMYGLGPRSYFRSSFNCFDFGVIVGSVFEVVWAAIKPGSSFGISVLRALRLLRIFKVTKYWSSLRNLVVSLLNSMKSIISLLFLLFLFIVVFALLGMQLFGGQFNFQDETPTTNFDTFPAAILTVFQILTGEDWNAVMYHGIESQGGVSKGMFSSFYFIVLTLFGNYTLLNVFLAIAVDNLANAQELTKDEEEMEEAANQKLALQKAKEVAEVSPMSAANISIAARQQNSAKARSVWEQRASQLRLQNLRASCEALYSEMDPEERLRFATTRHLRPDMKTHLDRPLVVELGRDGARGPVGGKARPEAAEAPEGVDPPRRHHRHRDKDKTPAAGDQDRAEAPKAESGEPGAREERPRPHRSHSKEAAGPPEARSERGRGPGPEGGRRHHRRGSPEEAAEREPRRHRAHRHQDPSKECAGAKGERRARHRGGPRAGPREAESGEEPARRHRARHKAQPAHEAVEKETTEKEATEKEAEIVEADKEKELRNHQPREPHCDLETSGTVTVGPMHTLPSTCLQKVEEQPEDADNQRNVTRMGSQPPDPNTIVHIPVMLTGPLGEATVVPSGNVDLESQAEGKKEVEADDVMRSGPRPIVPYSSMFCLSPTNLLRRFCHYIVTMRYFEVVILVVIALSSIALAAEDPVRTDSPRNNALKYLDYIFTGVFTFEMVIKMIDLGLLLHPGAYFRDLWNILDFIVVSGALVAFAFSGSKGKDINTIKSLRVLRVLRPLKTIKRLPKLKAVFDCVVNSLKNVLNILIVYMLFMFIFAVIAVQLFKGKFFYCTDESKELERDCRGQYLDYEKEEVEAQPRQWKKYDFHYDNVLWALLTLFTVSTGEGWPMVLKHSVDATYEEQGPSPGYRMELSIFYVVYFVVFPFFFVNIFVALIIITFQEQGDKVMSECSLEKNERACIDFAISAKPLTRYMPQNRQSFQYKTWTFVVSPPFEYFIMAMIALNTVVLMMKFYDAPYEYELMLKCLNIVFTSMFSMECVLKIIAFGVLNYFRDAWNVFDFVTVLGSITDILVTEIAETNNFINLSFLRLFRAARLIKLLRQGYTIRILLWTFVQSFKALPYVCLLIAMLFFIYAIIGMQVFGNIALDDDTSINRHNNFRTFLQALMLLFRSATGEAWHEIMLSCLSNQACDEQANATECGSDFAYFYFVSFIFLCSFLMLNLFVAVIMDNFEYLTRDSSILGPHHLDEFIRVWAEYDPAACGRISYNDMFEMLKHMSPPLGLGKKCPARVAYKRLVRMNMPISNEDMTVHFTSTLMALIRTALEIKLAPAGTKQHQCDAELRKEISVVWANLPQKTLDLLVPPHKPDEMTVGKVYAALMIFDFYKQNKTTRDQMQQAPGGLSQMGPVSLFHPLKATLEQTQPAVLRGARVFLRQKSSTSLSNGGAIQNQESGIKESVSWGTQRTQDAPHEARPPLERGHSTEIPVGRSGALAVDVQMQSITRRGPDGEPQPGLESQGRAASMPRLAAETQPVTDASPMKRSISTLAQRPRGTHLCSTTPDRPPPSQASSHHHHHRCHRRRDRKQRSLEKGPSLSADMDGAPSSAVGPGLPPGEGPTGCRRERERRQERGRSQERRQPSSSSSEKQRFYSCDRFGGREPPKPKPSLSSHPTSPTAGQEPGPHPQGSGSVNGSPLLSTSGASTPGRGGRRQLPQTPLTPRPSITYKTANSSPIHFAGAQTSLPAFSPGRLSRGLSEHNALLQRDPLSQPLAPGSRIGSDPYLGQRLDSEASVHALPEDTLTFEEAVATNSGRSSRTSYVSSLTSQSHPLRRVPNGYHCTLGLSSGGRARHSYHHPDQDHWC
T2 sequence (Q02410 whole entry): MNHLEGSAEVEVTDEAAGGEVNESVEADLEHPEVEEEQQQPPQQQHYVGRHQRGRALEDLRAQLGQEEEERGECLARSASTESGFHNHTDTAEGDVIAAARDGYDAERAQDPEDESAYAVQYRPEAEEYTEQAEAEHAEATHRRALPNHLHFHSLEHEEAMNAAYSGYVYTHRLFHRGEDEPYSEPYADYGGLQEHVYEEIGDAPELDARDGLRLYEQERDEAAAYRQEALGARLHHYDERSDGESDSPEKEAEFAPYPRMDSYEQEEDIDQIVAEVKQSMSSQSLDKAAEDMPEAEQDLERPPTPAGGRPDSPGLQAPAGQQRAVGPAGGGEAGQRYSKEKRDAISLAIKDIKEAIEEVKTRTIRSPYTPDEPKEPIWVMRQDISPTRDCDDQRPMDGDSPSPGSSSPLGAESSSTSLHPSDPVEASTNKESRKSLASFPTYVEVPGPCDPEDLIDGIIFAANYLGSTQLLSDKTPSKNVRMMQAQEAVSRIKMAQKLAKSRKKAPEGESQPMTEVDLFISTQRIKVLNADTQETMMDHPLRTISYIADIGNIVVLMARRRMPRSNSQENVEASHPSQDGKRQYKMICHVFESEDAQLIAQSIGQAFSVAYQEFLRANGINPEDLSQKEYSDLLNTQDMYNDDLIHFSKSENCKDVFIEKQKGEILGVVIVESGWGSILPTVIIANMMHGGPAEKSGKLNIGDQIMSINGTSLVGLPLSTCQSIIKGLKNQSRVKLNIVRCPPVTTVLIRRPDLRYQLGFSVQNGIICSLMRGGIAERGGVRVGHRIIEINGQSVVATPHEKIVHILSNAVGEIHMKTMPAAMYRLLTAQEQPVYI

[9] = molecular target: T2, Voltage-gated N-type calcium channel alpha-1B subunit/Amyloid beta A4 precursor protein-binding family A member 1; format: protein assay; remark: listed apart in the source
[10] = molecular target: Hexokinase (Trypanosoma brucei, UniProt Q38C41); assay: Confirmation assay for inhibitors of Trypanosoma brucei hexokinase 1-Analogue-first series. [Related pubchem assays (depositor defined):AID1430, AID1632, AID2516, AID2560, AID2579, AID2600, AID449725, AID492951]; format: functional
Sequence of Hexokinase (Q38C41 whole entry): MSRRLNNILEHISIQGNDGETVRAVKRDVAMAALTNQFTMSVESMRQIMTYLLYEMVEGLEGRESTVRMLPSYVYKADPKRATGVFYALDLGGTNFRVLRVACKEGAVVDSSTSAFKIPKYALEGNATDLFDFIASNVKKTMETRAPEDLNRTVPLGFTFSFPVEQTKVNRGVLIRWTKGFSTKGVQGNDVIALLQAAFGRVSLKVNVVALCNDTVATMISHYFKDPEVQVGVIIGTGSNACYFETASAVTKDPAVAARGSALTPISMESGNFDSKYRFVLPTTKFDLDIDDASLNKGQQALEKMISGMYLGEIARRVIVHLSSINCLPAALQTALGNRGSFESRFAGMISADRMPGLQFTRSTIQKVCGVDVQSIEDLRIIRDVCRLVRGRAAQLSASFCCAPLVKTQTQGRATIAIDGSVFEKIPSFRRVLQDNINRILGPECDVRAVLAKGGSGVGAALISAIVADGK

[11] = molecular target: CAAX prenyl protease 2 (Saccharomyces cerevisiae S288c, UniProt Q03530); format: biochemical
[12] = cells; format: functional, cell-based
[13] = molecular target: Beta-galactosidase (Escherichia coli, UniProt Q8VNN2); format: functional
[14] = molecular target: Luciferin 4-monooxygenase (Photinus pyralis, UniProt P08659); assay: firefly luciferase enzyme inhibitors, dose response, biochemical, luminescence (AID 1891)
[15] = molecular target: T3, Kappa-type opioid receptor (Homo sapiens, UniProt P41145); format: functional
T3 sequence (P41145 whole entry): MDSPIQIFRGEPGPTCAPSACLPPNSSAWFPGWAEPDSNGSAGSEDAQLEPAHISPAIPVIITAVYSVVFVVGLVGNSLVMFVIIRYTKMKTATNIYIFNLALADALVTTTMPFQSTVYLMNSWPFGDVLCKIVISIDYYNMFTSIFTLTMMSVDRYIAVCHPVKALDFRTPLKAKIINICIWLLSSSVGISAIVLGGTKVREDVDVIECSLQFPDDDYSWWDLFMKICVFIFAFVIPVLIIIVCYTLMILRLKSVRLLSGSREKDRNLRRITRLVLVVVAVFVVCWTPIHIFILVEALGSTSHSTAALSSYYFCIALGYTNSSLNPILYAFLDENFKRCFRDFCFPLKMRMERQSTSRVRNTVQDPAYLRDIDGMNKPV

[16] = Luminescence Cell-Based Dose Confirmation HTS to Identify Inhibitors of Platelet Dense Granule Release. [Related pubchem assays: 1663 (Primary HTS), 1678 (Summary of Project)]; format: functional
[17] = molecular target: T3, Kappa-type opioid receptor; format: functional; remark: listed apart in the source
[18] = cells; format: functional, cell-based; remark: listed apart in the source
[19] = tested on: INS1; assay: beta cell apoptosis inhibitors, cytokine rescue, dose response, luminescence, retest (AID 449756); format: functional, cell-based; conditions: Rattus norvegicus;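 further: cell death triggered by IL-1 beta plus TNF-alpha plus IFN-gamma mixture; protective hits raise ATP signal compared with cytokine alone wells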
[20] = molecular target: Eukaryotic translation initiation factor 4E (Mus musculus, UniProt P63073); assay: eIF4E–eIF4G protein interaction inhibitors, dose response, biochemical, TR-FRET (AID 855); format: functional;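 further: potency for disrupting eIF4E binding to eIF4GI seen as loss of FRET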
Sequence of Eukaryotic translation initiation factor 4E (P63073 whole entry): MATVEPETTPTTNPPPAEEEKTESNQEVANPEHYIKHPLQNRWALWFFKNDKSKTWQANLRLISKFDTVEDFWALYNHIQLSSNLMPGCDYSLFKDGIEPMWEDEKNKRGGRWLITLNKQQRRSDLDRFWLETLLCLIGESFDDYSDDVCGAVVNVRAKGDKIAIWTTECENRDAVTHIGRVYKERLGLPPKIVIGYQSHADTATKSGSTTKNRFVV

[21] = molecular target: T4, Dual specificity protein phosphatase 6 (Rattus norvegicus, UniProt Q64346); assay: MKP-3 phosphatase inhibitors, primary screen, biochemical, rat enzyme, in vitro (AID 425)
T4 sequence (Q64346 whole entry): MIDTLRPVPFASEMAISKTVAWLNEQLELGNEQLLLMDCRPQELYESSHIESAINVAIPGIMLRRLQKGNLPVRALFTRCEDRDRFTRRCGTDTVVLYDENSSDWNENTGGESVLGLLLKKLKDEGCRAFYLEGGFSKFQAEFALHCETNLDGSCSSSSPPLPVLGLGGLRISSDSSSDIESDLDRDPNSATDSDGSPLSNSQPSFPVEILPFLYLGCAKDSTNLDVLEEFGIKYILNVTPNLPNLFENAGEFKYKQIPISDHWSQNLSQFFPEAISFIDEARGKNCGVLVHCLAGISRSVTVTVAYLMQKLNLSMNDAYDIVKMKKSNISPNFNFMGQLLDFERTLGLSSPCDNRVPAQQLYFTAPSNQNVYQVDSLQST

[22] = molecular target: Induced myeloid leukemia cell differentiation protein Mcl-1 (Homo sapiens, UniProt Q07820); format: functional
[23] = molecular target: T5, Polyadenylate-binding protein 1 (Homo sapiens, UniProt P11940); assay: PABP1 MLLE–PAM2 interaction inhibitors, dose response, miRNA deadenylation inhibitor project, biochemical, fluorescence polarization, Cy5-PAM2 peptide, secondary (AID 602260); format: functional; conditions: read-out: IC50_Mean
T5 sequence (P11940 whole entry): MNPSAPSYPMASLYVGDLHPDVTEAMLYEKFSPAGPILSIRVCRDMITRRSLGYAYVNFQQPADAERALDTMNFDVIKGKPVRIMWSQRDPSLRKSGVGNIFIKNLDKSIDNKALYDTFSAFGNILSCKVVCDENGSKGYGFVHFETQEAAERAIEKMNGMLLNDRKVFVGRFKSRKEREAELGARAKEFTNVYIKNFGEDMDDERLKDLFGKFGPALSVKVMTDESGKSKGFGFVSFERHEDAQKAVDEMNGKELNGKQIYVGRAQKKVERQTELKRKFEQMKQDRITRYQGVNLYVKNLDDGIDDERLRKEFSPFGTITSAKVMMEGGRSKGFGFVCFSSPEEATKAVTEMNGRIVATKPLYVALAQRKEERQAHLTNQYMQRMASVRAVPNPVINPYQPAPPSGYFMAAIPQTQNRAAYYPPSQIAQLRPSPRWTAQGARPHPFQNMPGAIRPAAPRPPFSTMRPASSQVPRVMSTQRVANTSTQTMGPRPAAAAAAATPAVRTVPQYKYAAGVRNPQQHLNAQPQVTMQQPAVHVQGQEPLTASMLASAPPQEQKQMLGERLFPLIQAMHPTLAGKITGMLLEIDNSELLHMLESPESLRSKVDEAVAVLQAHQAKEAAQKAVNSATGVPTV

[24] = molecular target: T6, Dual specificity protein phosphatase 3 (Homo sapiens, UniProt P51452); assay: VHR1 phosphatase inhibitors, biochemical (AID 1878)
T6 sequence (P51452 whole entry): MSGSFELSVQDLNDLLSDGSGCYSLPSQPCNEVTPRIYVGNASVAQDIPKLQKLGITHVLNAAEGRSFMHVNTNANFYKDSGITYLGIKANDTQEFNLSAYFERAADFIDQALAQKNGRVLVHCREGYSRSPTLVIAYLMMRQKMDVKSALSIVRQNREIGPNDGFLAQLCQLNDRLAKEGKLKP

[25] = molecular target: T6, Dual specificity protein phosphatase 3; assay: VHR1 phosphatase inhibitors, primary screen, biochemical, absorbance, uHTS (AID 1654)
[26] = molecular target: T5, Polyadenylate-binding protein 1; assay: PABP1 MLLE–PAM2 binding inhibitor potency, dose response, biochemical, fluorescence polarization, FITC-PAM2 peptide (AID 602259); format: functional; conditions: read-out: IC50_Mean

O=C(Nc1nnc(-c2ccccc2Cl)o1)c1ccc(S(=O)(=O)N2CCCCCC2)cc1
EC50 [1]: 0.266 µM (active)
EC50 [2]: 0.793 µM (active)
IC50 [3]: 14.2 µM (active)
Ki [4]: > 66.7 µM (inactive)
CC50 [5]: 3.49 µM (active)
CC50 [6]: 7.66 µM (active)
CC50 [7]: 4.8 µM (active)

O=C(Nc1ccncc1NC(=O)c1cccc([N+](=O)[O-])c1)c1cccc([N+](=O)[O-])c1
IC50 [8]: 18.9 µM (active)
IC50 [9]: > 50 µM (inactive)

CC(C)(C)c1ccc(C(=O)Nc2cc(Cl)c(Br)cc2C(=O)O)cc1
IC50 [10]: 0.976 µM (active)

Cc1cccc2sc(N(CCN(C)C)C(=O)c3ccc4ccccc4c3)nc12
AC50 [11]: > 100 µM (inactive)

COc1ccc(C(=O)Nc2ccccc2C(=O)N/N=C/c2ccccn2)cc1OC
EC50 [12]: 16.6 µM (active)
EC50 [13]: > 31.5 µM (inactive)
EC50 [14]: 1.3 µM (active)
IC50 [15]: 7.91 µM (active)
EC50 [16]: 0.298 µM (active)
IC50 [17]: > 32 µM
IC50 [3]: 36.9 µM (active)
EC50 [18]: 8.88 µM (active)
CC50 [5]: 5.29 µM (active)
CC50 [6]: 14.3 µM (active)
CC50 [7]: > 20 µM (active)
AC50 [19]: 2.45 µM (active)

OB1OCc2cc(C(F)(F)F)ccc21
IC50 [10]: > 25 µM (inactive)

Cc1c(/N=N/c2c(-c3ccc([N+](=O)[O-])cc3)[nH]n(C(N)=S)c2=O)cccc1[N+](=O)[O-]
IC50 [20]: 50 µM (inactive)
IC50 [21]: 7.01 µM (active)
IC50 [22]: 6.05 µM (active)
IC50 [23]: > 66 µM (inactive)
IC50 [24]: 1.71 µM (active)
IC50 [8]: 16.3 µM (active)
IC50 [9]: > 50 µM (inactive)
IC50 [25]: 3.37 µM (active)
IC50 [26]: > 66 µM (inactive)
